From patent publication US11655244B2, “Carbazole compounds and methods of use thereof” (GSNO Therapeutics, Inc, priority 2017, dated 2023)
Read-outs that look alike come from different tables or passages of the source.

Tests used:
GSNOR enzyme [1] = molecular target: T1, GSNOR enzyme (Homo sapiens, UniProt P11766); assay: GSNOR inhibition assay (rate of NADH consumption, 340 nm absorbance); assay type: biochemical
Experimental: The following compounds were also prepared based on the methods described herein, using the appropriate starting materials. Table 2a and Table 2b also provides the % GSNOR inhibition at 20 μM of compounds described herein. […] The buffer was 100 mM phosphate buffer (pH 7.4.) The rate of NADH consumption for each well was determined by ultraviolet spectroscopy. Plates were read on a Molecular Devices Spectra Max UV/Visible Spectrophotometer/plate reader and the change in 340 nm absorbance at 25° C. was recorded for each well at 10 sec intervals over the duration of the recording period (2˜5 minutes). The rate was measured from the linear portion of the curve. Final test compound concentration was 20 μM. The mean % inhibition from 3 test compound wells and 5 control wells was measured as the percentage of the mean no compound+enzyme−the mean no enzyme, no compound control.

GSNOR enzyme [2] = molecular target: T1, GSNOR enzyme; assay: as above; assay type: biochemical; conditions: Table 2b; read-out: IC50 Micromolar
IL-6 = assay: LPS/cytokine assay (mouse inflammation assay), IL-6; assay type: in vivo, CD-1 male mice; conditions: for LPS/IL6 Lowest tested active: CD-1 male mice, IP or IV, cytokine typically 6 hrs after LPS
Experimental: Table 2b also includes additional biological data of compounds described herein. The LPS/cytokine Assay was carried out in CD-1 male mice. The assay measured the level of various cytokines, including IL-6, IL-17, and IL-23, after induction by bacterial liposaccharide (LPS). Compounds were dosed by IP or IV routes of administration at varying times before and after LPS and the cytokine concentrations were measured at varying times, typically 6 hrs, after LPS by standard methods using ELISA kits.
BIOLOGICAL TESTING: Compounds 10 and 17 from Table 1 were tested in a mouse inflammation assay. Briefly, CD-1 mice were dosed with compound, 12 hrs before injecting mice I.P. with the potent cytokine inducer, bacterial lipopolysaccharide (LPS). The mice were euthanized 6 hrs after the LPS was injected and their serum prepared by standard methods. The concentration of IL-6 in the serum of each experimental animal was measured using an IL-6 ELISA kit from Enzo. The compounds tested were active.
This LPS/cytokine assay was carried out in healthy mice and measured the level of cytokine IL-6, IL-17, and 23 induction by LPS. Compounds are dosed (either orally (“p.o.”) or intravenously (“i.v.”) at varying times before and after LPS, and the cytokines are measured at varying times after LPS. The effect of the tested compounds (Table 5) on IL-6 release is shown in FIG. 7. The effect of the tested compounds (Table 6) on IL-17 an IL-23 release is shown in FIG. 11 and FIG. 12, respectively.

[3] = Table 2a, test compound 20 μM, pH 7.4, 25° C., read-out: % Inhibit. at 20 μM
[4] = Table 2b, test compound 20 uM, read-out: % GSNOR Inhibition at 20 uM

T1 sequence (P11766 whole entry): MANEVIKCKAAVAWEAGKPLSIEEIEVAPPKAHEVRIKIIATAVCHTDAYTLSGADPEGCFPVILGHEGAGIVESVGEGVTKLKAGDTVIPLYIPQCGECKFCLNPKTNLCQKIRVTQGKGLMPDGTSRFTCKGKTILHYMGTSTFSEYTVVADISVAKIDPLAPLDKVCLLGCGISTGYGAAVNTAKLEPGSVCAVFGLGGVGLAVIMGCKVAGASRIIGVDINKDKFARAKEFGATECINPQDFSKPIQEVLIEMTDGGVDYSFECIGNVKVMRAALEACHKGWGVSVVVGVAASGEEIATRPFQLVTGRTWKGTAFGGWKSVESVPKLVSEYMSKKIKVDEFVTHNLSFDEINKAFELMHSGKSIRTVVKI

inhibition at 20 µM (GSNOR enzyme [1]; [3]) [%] | inhibition at 20 µM (GSNOR enzyme [1]; [4]) [%] | IC50 (GSNOR enzyme [2]) [nM] | SMILES | LPS/IL6 Lowest tested active (IL-6) [mg/kg] | IL-6 in serum after LPS (mouse inflammation assay) (IL-6; dosed 12 hrs before LPS I.P., serum 6 hrs after LPS)
80 | 80 | 1000 to 5000 | NC(=O)CCn1c2cc(Cn3ccnc3)ccc2c2ccc(C(=O)O)cc21 [Compound 8, 9-(3-amino-3-oxopropyl)-7-[(1H-imidazol-1-yl)methyl]-9H-carbazole-2-carboxylic acid] |  | 
85 | 75 | < 1000 | NC(=O)CCn1c2ccc(-n3ccnc3)cc2c2ccc(C(=O)O)cc21 [Compound 10, 9-(3-amino-3-oxopropyl)-6-(1H-imidazo-1-yl)-9H-carbazole-2-carboxylic acid] | 30 | active
89 | 89 | 1000 to 5000 | NC(=O)c1ccc(-n2c3cc(Cn4ccnc4)ccc3c3ccc(C(=O)O)cc32)c([N+](=O)[O-])c1 [Compound 16, 9-(4-aminocarbonyl-2-nitrophenyl)-7-[(1H-imidazol-1-yl)methyl]-9H-carbazole-2-carboxylic acid] |  | 
 | 72.4 | > 5000 | N#Cc1ccc(-n2c3ccc(-n4ccnc4)cc3c3ccc(CCC(=O)O)cc32)cc1 [Compound 18] |  | 
 | 81.3 | 1000 to 5000 | Cc1cc(C#N)ccc1-n1c2ccc(-n3ccnc3)cc2c2ccc(CCC(=O)O)cc21 [Compound 19] |  | 
 | 88.9 | 1000 to 5000 | NC(=O)c1ccc(-n2c3ccc(-n4ccnc4)cc3c3ccc(CCC(=O)O)cc32)cc1 [Compound 20] | 0.3 | 
 | 93.6 | 1000 to 5000 | Cc1cc(C(N)=O)ccc1-n1c2ccc(-n3ccnc3)cc2c2ccc(CCC(=O)O)cc21 [Compound 21] | 0.3 | 
 | 81.4 |  | O=C(O)CCc1ccc2c3cc(-n4ccnc4)ccc3n(-c3ccc(Cl)cc3)c2c1 [Compound 22] |  | 
 | 93.4 |  | O=C(O)CCc1ccc2c3cc(-n4ccnc4)ccc3n(-c3ccc(O)cc3)c2c1 [Compound 23] |  | 
